Test results taken from patent US9157064B2, “Methods for generating inner ear cells in vitro” (The Board of Trustees of the Leland Stanford Junior …, priority 2011, dated 2015).
Entries after “also recorded” stand apart in the source; their conditions may differ.

Columns and labels:
Assay type in all cases: cell-based, mouse
[1] = system: iPSC-derived hair cell-like cell; experiment: Mechanically induced currents of iPSC-derived hair cell-like cells (patch clamp); conditions: local application of 1 mM DHSM to hair bundles, then mechanical stimulation
Description: (§1) nGFP-expressing hair cell-like cells were identified by fluorescence microscopy, and nearby hair bundle-like protrusions were imaged with a […] objective with brightfield optics. Recordings were conducted with an Axoclamp 200a (Axon Instruments) amplifier, interfaced with a DIGIDATA® 1332 board (Axon), and jClamp Software (Scisoft). Mechanical stimulation was done with a stiff glass probe attached to a piezo stack.
(§2) More specifically, cultured cells were placed onto the stage of an OLYMPUS® BX 51 fixed stage upright microscope and imaged using a 100× dipping objective using brightfield optics. Images were collected using a C2400 NARISHIGE® analog camera coupled via a framegrabber to a PC computer using Image J software. Soda glass electrodes, coated with ski wax (MR. ZOG'S SEX WAX®) to limit stray capacitance, of resistances 3-5MΩ, were used to record from both ES and iPS cells. The culture medium was replaced during electrophysiological recordings with a solution containing (in mM) 140 NaCl, 5 KCl, 1 MgCl2, 2.5 CaCl, 10 HEPES, 6 glucose, 2 pyruvate, 2 ascorbate, 2 creatine. […] Data was analyzed with ORIGIN® software (Microcal). […]
(§3) Adaptation is a complex process in which hair bundle dynamic range is enhanced and sensitivity maintained over large displacements (Eatock, 2000). […] The fast time constant measured was 0.5±0.4 ms (n=5) and the slow was 11±5 ms (n=5). […]

[2] = system: ESC-derived hair cell-like cell; experiment: Mechanically induced currents of ESC-derived hair cell-like cells (patch clamp); conditions: local application of 1 mM DHSM to hair bundles, then mechanical stimulation
Description: as §1, §2, §3

iPSC-derived cultures = experiment: Otic induction of iPSC-derived embryoid body cultures (Pax2 immunostaining); conditions: iPSC derivatives; not treated with any of the three initial factors, but treated with bFGF
Description: (§4) Embryoid bodies were transferred into fibronectin-coated 4-well dishes (Greiner) at 30 embryoid bodies per well and cultured for three days in DMEM/F12 (Invitrogen, mixed 1:1) supplemented with N2 and B27 (Invitrogen), bFGF (R&D Systems, 25 ng/ml), heparin sulfate (Sigma, 50 ng/ml), and ampicillin ([…]). FGF3 (recombinant human FGF-3, R&D Systems) and FGF10 (recombinant human FGF-10, R&D Systems) were used at 25 ng/ml in parallel experiments. The FGF receptor antagonist SU5402 (a gift from Pfizer R&D) was used at […]. After FGF-treatment, the cells were detached using 0.05% trypsin/EDTA (Sigma) in PBS, mildly triturated, and passed 1:10 into individual wells of 4-well dishes coated with either fibronectin, gelatin, MEFs, or mitotically inactivated embryonic (E18) chicken utricle stromal cells. Utricle stromal cells were prepared from 20 utricles whose sensory epithelia were removed after 40 min treatment with 0.5 mg/ml thermolysin (Sigma) in DMEM/F12 at 37 C. After addition of 5% serum, the sensory epithelia were removed and used in unrelated experiments. […]
(§5) For immunocytochemistry, the cells were fixed with 4% paraformaldehyde in PBS for 15 min at room temperature. […] Images were acquired with a Zeiss Axioimager/LSM 5 Exciter fluorescence and confocal microscope. […]

ESC-derived cultures = experiment: Otic induction of ESC-derived embryoid body cultures (Pax2 immunostaining); conditions: ESC derivatives; not treated with any of the three initial factors, but treated with bFGF
Description: as §4, §5

CN[C@@H]1[C@H](O[C@H]2[C@H](O[C@H]3[C@H](O)[C@@H](O)[C@H](NC(=N)N)[C@@H](O)[C@@H]3NC(=N)N)O[C@@H](C)[C@]2(O)CO)O[C@@H](CO)[C@H](O)[C@H]1O [DHSM, dihydrostreptomycin]
mechanically induced (evoked) currents [1]: antagonized reversibly; also recorded: reversibly blocked | mechanically induced (evoked) currents [2]: antagonized reversibly; also recorded: reversibly blocked

bFGF: fibroblast growth factor FGF2 (bFGF), general otic inducer
Pax2-expressing cells (iPSC-derived cultures): 0.1±0.09% | Pax2-expressing cells (ESC-derived cultures): 0.05±0.04%
